From US6172079A, “5-substituted-3-oxadiazolyl-1,6-naphthyridin-2(1H)-one derivatives” (Dainippon Pharmaceutical Co., Ltd., priority 1997, dated 2001)
pIC50: −log10 of the molar value.

Target: benzodiazepine receptor
Experiment: Benzodiazepine Receptor Binding Assay
Conditions: read-out: BZP-receptor Binding IC50; [3H]-diazepam 1.5 nM; rat brain crude synaptosome membrane; 0° C., 20 min

Compound | pIC50
CC(C)c1noc(-c2cc3c(-c4ccsc4)nccc3[nH]c2=O)n1 [Example 231] | 9.15
CCCc1noc(-c2cc3c(-c4cccs4)nccc3[nH]c2=O)n1 [Example 221] | 9.14
C=Cc1nc(-c2cc3c(C4CC4)nccc3[nH]c2=O)no1 [Example 61] | 8.98
Cc1nccc2[nH]c(=O)c(-c3noc(C4CC4)n3)cc12 [Example 1, 3-(5-cyclopropyl-1,2,4-oxadiazol-3-yl)-5-methyl-1,6-naphthyridin-2(1H)-one] | 8.64
CCc1nc(-c2cc3c(-c4cccc(F)c4)nccc3[nH]c2=O)no1 [Example 27] | 9.02
CC(C)c1noc(-c2cc3c(-c4ccccc4F)nccc3[nH]c2=O)n1 [Example 226] | 8.85
CC(C)c1nc(-c2cc3c(C4CC4)nccc3[nH]c2=O)no1 [Example 44] | 8.58
C=C(C)c1nc(-c2cc3c(C4CC4)nccc3[nH]c2=O)no1 [Example 60] | 8.70
CC(C)c1nc(-c2cc3c(-c4cccc(F)c4)nccc3[nH]c2=O)no1 [Example 46] | 8.67
O=c1[nH]c2ccnc(-c3ccccc3F)c2cc1-c1noc(C2CC2)n1 [Example 116] | 8.93
CCc1nc(-c2cc3cnccc3[nH]c2=O)no1 [Example 12] | 8.10
CCc1nc(-c2cc3c(-c4ccc(OC)cc4)nccc3[nH]c2=O)no1 [Example 33] | 8.26
COc1cccc(-c2nccc3[nH]c(=O)c(-c4noc(C5CC5)n4)cc23)c1 [Example 120] | 8.80
Cc1cccc(-c2nccc3[nH]c(=O)c(-c4noc(C5CC5)n4)cc23)c1 [Example 57] | 8.81
Cc1ccc(-c2nccc3[nH]c(=O)c(-c4noc(C)n4)cc23)cc1 [Example 10] | 8.09
CCCc1noc(-c2cc3c(-c4ccsc4)nccc3[nH]c2=O)n1 [Example 222] | 8.83
CCCc1nc(-c2cc3c(-c4ccc(F)cc4)nccc3[nH]c2=O)no1 [Example 40] | 8.13
CCc1nc(-c2cc3c(-c4ccc(C)cc4)nccc3[nH]c2=O)no1 [Example 32] | 8.48
CCCc1nccc2[nH]c(=O)c(-c3noc(CC)n3)cc12 [Example 15] | 8.21
COc1ccc(-c2nccc3[nH]c(=O)c(-c4noc(C5CC5)n4)cc23)cc1 [Example 59] | 8.70
CCCc1noc(-c2cc3c(-c4ccccc4F)nccc3[nH]c2=O)n1 [Example 217] | 8.87
O=c1[nH]c2ccnc(-c3ccc(F)cc3)c2cc1-c1noc(C2CC2)n1 [Example 54] | 8.92
CCCc1nc(-c2cc3c(-c4ccco4)nccc3[nH]c2=O)no1 [Example 109] | 8.76
CCc1noc(-c2cc3c(-c4cccc(OC)c4)nccc3[nH]c2=O)n1 [Example 209] | 8.89
CCCCc1nccc2[nH]c(=O)c(-c3noc(CC)n3)cc12 [Example 19] | 8.20
CCCc1nc(-c2cc3c(-c4cccc(F)c4)nccc3[nH]c2=O)no1 [Example 39] | 8.54
CCc1nc(-c2cc3c(-c4ccccc4C)nccc3[nH]c2=O)no1 [Example 97] | 8.33

Next, values leading:

pIC50 | Compound
8.26 | CCc1noc(-c2cc3c(-c4ccc(Cl)cc4)nccc3[nH]c2=O)n1 [Example 204]
8.32 | CCc1noc(-c2cc3c(-c4ccccc4C)nccc3[nH]c2=O)n1 [Example 205]
8.74 | CCc1noc(-c2cc3c(-c4ccc(F)cc4)nccc3[nH]c2=O)n1 [Example 201]
8.71 | CCc1noc(-c2cc3c(C4CCCCC4)nccc3[nH]c2=O)n1 [Example 197]
8.41 | CCCc1nc(-c2cc3c(C4CC4)nccc3[nH]c2=O)no1 [Example 37]
8.79 | CCc1nc(-c2cc3c(-c4cccc(C)c4)nccc3[nH]c2=O)no1 [Example 31]
8.82 | CC(C)c1nc(-c2cc3c(-c4ccsc4)nccc3[nH]c2=O)no1 [Example 115]
9.08 | O=c1[nH]c2ccnc(C3CC3)c2cc1-c1nc(C2CC2)no1 [Example 234]
8.73 | Cc1ccccc1-c1nccc2[nH]c(=O)c(-c3nc(C4CC4)no3)cc12 [Example 242]
8.97 | CC(C)c1nc(-c2cc3c(-c4cccs4)nccc3[nH]c2=O)no1 [Example 114]
8.19 | Cc1nccc2[nH]c(=O)c(-c3nc(C4CC4)no3)cc12 [Example 232]
8.60 | COc1ccccc1-c1nccc2[nH]c(=O)c(-c3noc(C4CC4)n3)cc12 [Example 119]
8.84 | CC(C)c1noc(-c2cc3c(-c4cccc(F)c4)nccc3[nH]c2=O)n1 [Example 227]
8.93 | CCCc1noc(-c2cc3c(-c4ccccc4)nccc3[nH]c2=O)n1 [Example 216]
9.06 | O=c1[nH]c2ccnc(-c3cccs3)c2cc1-c1noc(C2CC2)n1 [Example 122]
8.78 | CCc1nc(-c2cc3c(-c4cccc(OC)c4)nccc3[nH]c2=O)no1 [Example 99]
8.67 | CCCc1nc(-c2cc3c(-c4ccccc4F)nccc3[nH]c2=O)no1 [Example 108]
8.74 | CCc1nc(-c2cc3c(C4CC=CCC4)nccc3[nH]c2=O)no1 (centres unmarked) [Example 25]
8.86 | O=c1[nH]c2ccnc(-c3ccc(F)cc3)c2cc1-c1nc(C2CC2)no1 [Example 238]

pIC50 | Compound
8.84 | O=c1[nH]c2ccnc(-c3cccs3)c2cc1-c1nc(C2CC2)no1 [Example 246]
8.42 | CCCCCc1nccc2[nH]c(=O)c(-c3noc(CC)n3)cc12 [Example 22]
8.79 | Cc1cccc(-c2nccc3[nH]c(=O)c(-c4noc(C)n4)cc23)c1 [Example 9]
8.94 | CCCc1nc(-c2cc3c(-c4cccs4)nccc3[nH]c2=O)no1 [Example 110]
9.17 | CCc1nc(-c2cc3c(-c4ccccc4)nccc3[nH]c2=O)no1 [Example 26]
8.67 | CC(C)c1noc(-c2cc3c(-c4ccccc4)nccc3[nH]c2=O)n1 [Example 225]
8.66 | CC(C)c1nc(-c2cc3c(-c4ccco4)nccc3[nH]c2=O)no1 [Example 113]
9.05 | CC(C)c1noc(-c2cc3c(-c4cccs4)nccc3[nH]c2=O)n1 [Example 230]
8.85 | O=c1[nH]c2ccnc(-c3ccccc3Cl)c2cc1-c1noc(C2CC2)n1 [Example 117]
8.29 | CCc1nc(-c2cc3c(-c4ccc(Cl)s4)nccc3[nH]c2=O)no1 [Example 104]
8.38 | CCc1noc(-c2cc3c(-c4ccccc4OC)nccc3[nH]c2=O)n1 [Example 208]
8.74 | Cc1cccc(-c2nccc3[nH]c(=O)c(-c4nc(C5CC5)no4)cc23)c1 [Example 243]
8.40 | CCCCc1nccc2[nH]c(=O)c(-c3nc(CC)no3)cc12 [Example 195]
8.07 | CCc1nc(-c2cc3c(-c4ccccc4OC)nccc3[nH]c2=O)no1 [Example 98]
8.89 | Cc1ccccc1-c1nccc2[nH]c(=O)c(-c3noc(C4CC4)n3)cc12 [Example 118]
8.47 | CCc1noc(-c2cc3c(-c4ccc(C)cc4)nccc3[nH]c2=O)n1 [Example 207]
8.73 | O=c1[nH]c2ccnc(-c3cccc(F)c3)c2cc1-c1nc(C2CC2)no1 [Example 237]
8.61 | CCCc1noc(-c2cc3c(C4CC4)nccc3[nH]c2=O)n1 [Example 215]
8.79 | O=c1[nH]c2ccnc(-c3ccccc3F)c2cc1-c1nc(C2CC2)no1 [Example 236]
